In patent publication US9290777B2, “Putative cytokinin receptor and methods for use thereof” (NATIONAL UNIVERSITY OF SINGAPORE, priority 2007, dated 2016):

Test system: ARR4
Assay: qRT-PCR of cytokinin responsive gene after BA pulse, fold change vs untreated wild type
Assay type: cell-based, Arabidopsis thaliana

## c1ccc(CNc2ncnc3nc[nH]c23)cc1 [benzyladenine]
BA 0.01 μM, 5 min, AS1, ↑ up
  ARR4 fold change: 4.12↑
BA 0.01 μM, 5 min, AS8, ↑ up
  ARR4 fold change: 6.1↑
BA 0.01 μM, 5 min, AS21, ↑ up
  ARR4 fold change: 8.01↑
BA 0.01 μM, 5 min, OE1, ↓ down
  ARR4 fold change: 5.01↓
BA 0.01 μM, 5 min, OE12, ↓ down
  ARR4 fold change: 5.87↓
BA 0.01 μM, 5 min, OE18, ↓ down
  ARR4 fold change: 7.56↓
BA 0.01 μM, 5 min, Wild type, ↑ up
  ARR4 fold change: 3.13↑
BA 0.01 μM, 15 min, AS1, ↑ up
  ARR4 fold change: 4.57↑
BA 0.01 μM, 15 min, AS8, ↑ up
  ARR4 fold change: 6.41↑
BA 0.01 μM, 15 min, AS21, ↑ up
  ARR4 fold change: 8.39↑
BA 0.01 μM, 15 min, OE1, ↓ down
  ARR4 fold change: 4.66↓
BA 0.01 μM, 15 min, OE12, ↓ down
  ARR4 fold change: 5.56↓
BA 0.01 μM, 15 min, OE18, ↓ down
  ARR4 fold change: 7.32↓
BA 0.01 μM, 15 min, Wild type, ↑ up
  ARR4 fold change: 3.67↑
BA 0.01 μM, 30 min, AS1, ↑ up
  ARR4 fold change: 4.98↑
BA 0.01 μM, 30 min, AS8, ↑ up
  ARR4 fold change: 6.86↑
BA 0.01 μM, 30 min, AS21, ↑ up
  ARR4 fold change: 8.53↑
BA 0.01 μM, 30 min, OE1, ↓ down
  ARR4 fold change: 4.41↓
BA 0.01 μM, 30 min, OE12, ↓ down
  ARR4 fold change: 5.13↓
BA 0.01 μM, 30 min, OE18, ↓ down
  ARR4 fold change: 7.13↓
BA 0.01 μM, 30 min, Wild type, ↑ up
  ARR4 fold change: 3.98↑
BA 0.01 μM, 1 h, AS1, ↑ up
  ARR4 fold change: 5.2↑
BA 0.01 μM, 1 h, AS8, ↑ up
  ARR4 fold change: 6.98↑
BA 0.01 μM, 1 h, AS21, ↑ up
  ARR4 fold change: 8.99↑
BA 0.01 μM, 1 h, OE1, ↓ down
  ARR4 fold change: 4.01↓
BA 0.01 μM, 1 h, OE12, ↓ down
  ARR4 fold change: 4.06↓
BA 0.01 μM, 1 h, OE18, ↓ down
  ARR4 fold change: 6.98↓
BA 0.01 μM, 1 h, Wild type, ↑ up
  ARR4 fold change: 4.15↑
BA 0.1 μM, 5 min, AS1, ↑ up
  ARR4 fold change: 5.14↑
BA 0.1 μM, 5 min, AS8, ↑ up
  ARR4 fold change: 7.12↑
BA 0.1 μM, 5 min, AS21, ↑ up
  ARR4 fold change: 9.11↑
BA 0.1 μM, 5 min, OE1, ↓ down
  ARR4 fold change: 4.56↓
BA 0.1 μM, 5 min, OE12, ↓ down
  ARR4 fold change: 4.91↓
BA 0.1 μM, 5 min, OE18, ↓ down
  ARR4 fold change: 6.89↓
BA 0.1 μM, 5 min, Wild type, ↑ up
  ARR4 fold change: 4.36↑
BA 0.1 μM, 15 min, AS1, ↑ up
  ARR4 fold change: 5.39↑
BA 0.1 μM, 15 min, AS8, ↑ up
  ARR4 fold change: 7.32↑
BA 0.1 μM, 15 min, AS21, ↑ up
  ARR4 fold change: 9.26↑
BA 0.1 μM, 15 min, OE1, ↓ down
  ARR4 fold change: 4.24↓
BA 0.1 μM, 15 min, OE12, ↓ down
  ARR4 fold change: 4.71↓
BA 0.1 μM, 15 min, OE18, ↓ down
  ARR4 fold change: 4.72↓
BA 0.1 μM, 15 min, Wild type, ↑ up
  ARR4 fold change: 4.58↑
BA 0.1 μM, 30 min, AS1, ↑ up
  ARR4 fold change: 5.69↑
BA 0.1 μM, 30 min, AS8, ↑ up
  ARR4 fold change: 7.57↑
BA 0.1 μM, 30 min, AS21, ↑ up
  ARR4 fold change: 9.48↑
BA 0.1 μM, 30 min, OE1, ↓ down
  ARR4 fold change: 4.12↓
BA 0.1 μM, 30 min, OE12, ↓ down
  ARR4 fold change: 4.59↓
BA 0.1 μM, 30 min, OE18, ↓ down
  ARR4 fold change: 4.36↓
BA 0.1 μM, 30 min, Wild type, ↑ up
  ARR4 fold change: 4.89↑
BA 0.1 μM, 1 h, AS1, ↑ up
  ARR4 fold change: 5.98↑
BA 0.1 μM, 1 h, AS8, ↑ up
  ARR4 fold change: 7.99↑
BA 0.1 μM, 1 h, AS21, ↑ up
  ARR4 fold change: 9.83↑
BA 0.1 μM, 1 h, OE1, ↓ down
  ARR4 fold change: 3.96↓
BA 0.1 μM, 1 h, OE12, ↓ down
  ARR4 fold change: 4.21↓
BA 0.1 μM, 1 h, OE18, ↓ down
  ARR4 fold change: 4.01↓
BA 0.1 μM, 1 h, Wild type, ↑ up
  ARR4 fold change: 4.99↑
BA 1.0 μM, 5 min, AS1, ↑ up
  ARR4 fold change: 6.43↑
BA 1.0 μM, 5 min, AS8, ↑ up
  ARR4 fold change: 8.01↑
BA 1.0 μM, 5 min, AS21, ↑ up
  ARR4 fold change: 9.93↑
BA 1.0 μM, 5 min, OE1, ↓ down
  ARR4 fold change: 3.76↓
BA 1.0 μM, 5 min, OE12, ↓ down
  ARR4 fold change: 4.19↓
BA 1.0 μM, 5 min, OE18, ↓ down
  ARR4 fold change: 3.36↓
BA 1.0 μM, 5 min, Wild type, ↑ up
  ARR4 fold change: 5.1↑
BA 1.0 μM, 15 min, AS1, ↑ up
  ARR4 fold change: 6.68↑
BA 1.0 μM, 15 min, AS8, ↑ up
  ARR4 fold change: 8.43↑
BA 1.0 μM, 15 min, AS21, ↑ up
  ARR4 fold change: 10.02↑
BA 1.0 μM, 15 min, OE1, ↓ down
  ARR4 fold change: 3.51↓
BA 1.0 μM, 15 min, OE12, ↓ down
  ARR4 fold change: 4.01↓
BA 1.0 μM, 15 min, OE18, ↓ down
  ARR4 fold change: 3.21↓
BA 1.0 μM, 15 min, Wild type, ↑ up
  ARR4 fold change: 5.31↑
BA 1.0 μM, 30 min, AS1, ↑ up
  ARR4 fold change: 6.73↑
BA 1.0 μM, 30 min, AS8, ↑ up
  ARR4 fold change: 8.69↑
BA 1.0 μM, 30 min, AS21, ↑ up
  ARR4 fold change: 10.35↑
BA 1.0 μM, 30 min, OE1, ↓ down
  ARR4 fold change: 3.29↓
BA 1.0 μM, 30 min, OE12, ↓ down
  ARR4 fold change: 3.89↓
BA 1.0 μM, 30 min, OE18, ↓ down
  ARR4 fold change: 3.01↓
BA 1.0 μM, 30 min, Wild type, ↑ up
  ARR4 fold change: 5.59↑
BA 1.0 μM, 1 h, AS1, ↑ up
  ARR4 fold change: 7.01↑
BA 1.0 μM, 1 h, AS8, ↑ up
  ARR4 fold change: 8.93↑
BA 1.0 μM, 1 h, AS21, ↑ up
  ARR4 fold change: 10.76↑
BA 1.0 μM, 1 h, OE1, ↓ down
  ARR4 fold change: 3.01↓
BA 1.0 μM, 1 h, OE12, ↓ down
  ARR4 fold change: 3.56↓
BA 1.0 μM, 1 h, OE18, ↓ down
  ARR4 fold change: 2.92↓
BA 1.0 μM, 1 h, Wild type, ↑ up
  ARR4 fold change: 5.87↑
BA 5.0 μM, 5 min, AS1, ↑ up
  ARR4 fold change: 6.98↑
BA 5.0 μM, 5 min, AS8, ↑ up
  ARR4 fold change: 8.98↑
BA 5.0 μM, 5 min, AS21, ↑ up
  ARR4 fold change: 10.43↑
BA 5.0 μM, 5 min, OE1, ↓ down
  ARR4 fold change: 3.19↓
BA 5.0 μM, 5 min, OE12, ↓ down
  ARR4 fold change: 3.87↓
BA 5.0 μM, 5 min, OE18, ↓ down
  ARR4 fold change: 2.45↓
BA 5.0 μM, 5 min, Wild type, ↑ up
  ARR4 fold change: 6.52↑
BA 5.0 μM, 15 min, AS1, ↑ up
  ARR4 fold change: 7.01↑
BA 5.0 μM, 15 min, AS8, ↑ up
  ARR4 fold change: 9.07↑
BA 5.0 μM, 15 min, AS21, ↑ up
  ARR4 fold change: 10.54↑
BA 5.0 μM, 15 min, OE1, ↓ down
  ARR4 fold change: 3.01↓
BA 5.0 μM, 15 min, OE12, ↓ down
  ARR4 fold change: 3.62↓
BA 5.0 μM, 15 min, OE18, ↓ down
  ARR4 fold change: 2.18↓
BA 5.0 μM, 15 min, Wild type, ↑ up
  ARR4 fold change: 6.69↑
BA 5.0 μM, 30 min, AS1, ↑ up
  ARR4 fold change: 7.23↑
BA 5.0 μM, 30 min, Wild type, ↑ up
  ARR4 fold change: 6.89↑
